The values that follow are results of earlier work, collected in patent US20260014261A1, “TARGETED PROTEIN MODIFICATION” (Weatherwax Biotechnologies Corporation, priority 2022, published 2026).

Each structure is given as a SMILES string.

The target of the data set is p53 (Homo sapiens, UniProt P04637). The following applies: read-out: binding affinity (Kd) for p53.
Chain of p53 (P04637 whole entry): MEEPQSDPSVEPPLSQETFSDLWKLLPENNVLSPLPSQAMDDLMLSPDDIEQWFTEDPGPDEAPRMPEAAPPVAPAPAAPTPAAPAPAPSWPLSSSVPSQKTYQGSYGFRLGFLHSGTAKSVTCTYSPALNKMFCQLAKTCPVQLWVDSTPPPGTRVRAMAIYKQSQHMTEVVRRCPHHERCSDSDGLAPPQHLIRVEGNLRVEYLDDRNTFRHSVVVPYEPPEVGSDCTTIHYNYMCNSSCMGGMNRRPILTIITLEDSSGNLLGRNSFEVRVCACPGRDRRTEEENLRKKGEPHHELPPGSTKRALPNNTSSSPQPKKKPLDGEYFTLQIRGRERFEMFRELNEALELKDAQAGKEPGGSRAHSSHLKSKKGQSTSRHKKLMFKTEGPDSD

On to `CN(C)CCCNc1nc(CN2CCN(C(c3ccc(Cl)cc3)c3ccc(Cl)cc3)CC2)nc2ccccc12` [SCH 529074], for which the dissociation constant Kd is roughly 1000 nM.

As a reminder, the Kd is a measure of binding affinity in units of concentration.
